Read-outs that look alike come from different tables or passages of the source.
Key:
Experiment in all cases: KinomeScan kinase panel, single concentration 10 µM
Format in all cases: binding
KinomeScan kinase panel [1] = target: T1, KinomeScan kinase panel (Homo sapiens, UniProt P00533, L858R); details: EGFR(L858R), 10 µM
T1 construct: purchased DiscoveRx (KinomeScan)

KinomeScan kinase panel [2] = target: T2, KinomeScan kinase panel (Homo sapiens, UniProt P09769); details: FGR, 10 µM; read-out: score (%)
T2 construct: purchased DiscoveRx (KinomeScan)

KinomeScan kinase panel [3] = target: T3, KinomeScan kinase panel (Homo sapiens, UniProt P15735); details: PHKG2, 10 µM; read-out: score (%)
T3 construct: purchased DiscoveRx (KinomeScan)
T3 sequence (P15735 1-406): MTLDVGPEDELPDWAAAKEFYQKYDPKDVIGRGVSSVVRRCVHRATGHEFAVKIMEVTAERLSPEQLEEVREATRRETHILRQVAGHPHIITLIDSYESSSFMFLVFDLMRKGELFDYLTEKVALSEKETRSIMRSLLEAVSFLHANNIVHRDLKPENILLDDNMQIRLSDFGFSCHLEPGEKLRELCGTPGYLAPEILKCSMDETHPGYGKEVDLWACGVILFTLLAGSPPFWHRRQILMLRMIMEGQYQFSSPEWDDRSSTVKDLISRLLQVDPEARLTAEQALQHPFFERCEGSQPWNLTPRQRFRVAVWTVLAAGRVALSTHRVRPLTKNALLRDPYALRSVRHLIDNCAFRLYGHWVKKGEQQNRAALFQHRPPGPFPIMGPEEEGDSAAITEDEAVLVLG

KinomeScan kinase panel [4] = target: T4, KinomeScan kinase panel (Homo sapiens, UniProt P21127); details: CDC2L1, 10 µM; read-out: score (%)
T4 construct: purchased DiscoveRx (KinomeScan)

KinomeScan kinase panel [5] = target: T5, KinomeScan kinase panel (Homo sapiens, UniProt P22607); details: FGFR3, 10 µM; read-out: score (%)
T5 construct: purchased DiscoveRx (KinomeScan)

KinomeScan kinase panel [6] = target: T6, KinomeScan kinase panel (Homo sapiens, UniProt P49840); details: GSK3A, 10 µM; read-out: score (%)
T6 construct: purchased DiscoveRx (KinomeScan)

KinomeScan kinase panel [7] = target: T7, KinomeScan kinase panel (Homo sapiens, UniProt P51955); details: NEK2, 10 µM; read-out: score (%)
T7 construct: purchased DiscoveRx (KinomeScan)
T7 sequence (P51955 1-445): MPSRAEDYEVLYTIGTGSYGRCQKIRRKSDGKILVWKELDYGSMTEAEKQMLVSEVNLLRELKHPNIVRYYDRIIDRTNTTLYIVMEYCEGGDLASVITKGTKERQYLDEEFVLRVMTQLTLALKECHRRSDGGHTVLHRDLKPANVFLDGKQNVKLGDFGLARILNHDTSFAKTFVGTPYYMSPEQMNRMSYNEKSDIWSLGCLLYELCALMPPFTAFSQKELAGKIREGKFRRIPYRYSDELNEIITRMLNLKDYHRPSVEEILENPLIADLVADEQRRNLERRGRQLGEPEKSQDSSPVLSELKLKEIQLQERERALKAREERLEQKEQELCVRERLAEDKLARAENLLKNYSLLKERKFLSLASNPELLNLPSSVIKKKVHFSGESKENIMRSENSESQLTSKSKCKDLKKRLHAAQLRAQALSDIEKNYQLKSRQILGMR

KinomeScan kinase panel [8] = target: T8, KinomeScan kinase panel (Homo sapiens, UniProt P54760); details: EPHB4, 10 µM; read-out: score (%)
T8 construct: purchased DiscoveRx (KinomeScan)
T8 sequence (P54760 16-987): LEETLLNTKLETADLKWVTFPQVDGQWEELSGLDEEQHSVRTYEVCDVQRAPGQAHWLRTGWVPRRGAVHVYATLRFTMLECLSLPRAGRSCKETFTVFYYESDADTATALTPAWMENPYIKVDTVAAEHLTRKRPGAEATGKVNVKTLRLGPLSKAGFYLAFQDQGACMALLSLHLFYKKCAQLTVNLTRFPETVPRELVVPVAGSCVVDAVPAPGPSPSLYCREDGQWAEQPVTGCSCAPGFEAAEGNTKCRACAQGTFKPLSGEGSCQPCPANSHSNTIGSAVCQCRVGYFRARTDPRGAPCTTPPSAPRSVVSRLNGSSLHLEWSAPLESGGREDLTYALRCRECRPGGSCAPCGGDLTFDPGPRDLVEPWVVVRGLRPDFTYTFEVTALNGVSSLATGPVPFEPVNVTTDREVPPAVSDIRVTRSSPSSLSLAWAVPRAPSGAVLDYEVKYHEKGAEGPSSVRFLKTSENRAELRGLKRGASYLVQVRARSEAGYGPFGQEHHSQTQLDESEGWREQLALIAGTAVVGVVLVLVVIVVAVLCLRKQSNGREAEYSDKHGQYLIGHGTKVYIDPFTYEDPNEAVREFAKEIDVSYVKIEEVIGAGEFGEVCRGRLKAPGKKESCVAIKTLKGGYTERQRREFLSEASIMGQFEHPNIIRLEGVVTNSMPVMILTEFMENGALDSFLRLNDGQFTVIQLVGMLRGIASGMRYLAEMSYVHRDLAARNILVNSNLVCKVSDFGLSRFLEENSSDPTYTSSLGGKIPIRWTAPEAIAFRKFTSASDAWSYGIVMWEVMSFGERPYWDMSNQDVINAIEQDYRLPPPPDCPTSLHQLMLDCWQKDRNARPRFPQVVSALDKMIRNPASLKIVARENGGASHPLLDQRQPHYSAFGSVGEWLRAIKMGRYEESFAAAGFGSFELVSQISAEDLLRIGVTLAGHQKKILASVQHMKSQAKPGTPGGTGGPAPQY

KinomeScan kinase panel [9] = target: T9, KinomeScan kinase panel (Homo sapiens, UniProt Q07002); details: PCTK3, 10 µM; read-out: score (%)
T9 construct: purchased DiscoveRx (KinomeScan)

KinomeScan kinase panel [10] = target: T10, KinomeScan kinase panel (Homo sapiens, UniProt Q9BRS2); details: read-out: score (%)
T10 construct: purchased DiscoveRx (KinomeScan)
T10 sequence (Q9BRS2 1-568): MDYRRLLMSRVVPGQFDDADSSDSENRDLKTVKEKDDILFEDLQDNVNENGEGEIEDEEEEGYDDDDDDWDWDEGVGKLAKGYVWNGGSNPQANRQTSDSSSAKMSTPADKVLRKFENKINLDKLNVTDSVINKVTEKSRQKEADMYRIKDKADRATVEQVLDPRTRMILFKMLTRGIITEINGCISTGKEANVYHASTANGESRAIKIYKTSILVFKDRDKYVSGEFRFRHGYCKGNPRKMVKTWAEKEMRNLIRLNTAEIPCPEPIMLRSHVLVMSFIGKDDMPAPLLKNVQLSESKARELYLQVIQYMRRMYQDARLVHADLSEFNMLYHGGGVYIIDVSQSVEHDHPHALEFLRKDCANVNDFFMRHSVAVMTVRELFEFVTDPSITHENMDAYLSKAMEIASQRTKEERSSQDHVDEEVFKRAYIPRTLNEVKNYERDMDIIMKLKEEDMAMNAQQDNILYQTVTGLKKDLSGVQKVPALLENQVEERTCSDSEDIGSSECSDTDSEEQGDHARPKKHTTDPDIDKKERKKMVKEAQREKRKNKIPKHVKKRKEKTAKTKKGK

T4 sequence (P21127 whole entry): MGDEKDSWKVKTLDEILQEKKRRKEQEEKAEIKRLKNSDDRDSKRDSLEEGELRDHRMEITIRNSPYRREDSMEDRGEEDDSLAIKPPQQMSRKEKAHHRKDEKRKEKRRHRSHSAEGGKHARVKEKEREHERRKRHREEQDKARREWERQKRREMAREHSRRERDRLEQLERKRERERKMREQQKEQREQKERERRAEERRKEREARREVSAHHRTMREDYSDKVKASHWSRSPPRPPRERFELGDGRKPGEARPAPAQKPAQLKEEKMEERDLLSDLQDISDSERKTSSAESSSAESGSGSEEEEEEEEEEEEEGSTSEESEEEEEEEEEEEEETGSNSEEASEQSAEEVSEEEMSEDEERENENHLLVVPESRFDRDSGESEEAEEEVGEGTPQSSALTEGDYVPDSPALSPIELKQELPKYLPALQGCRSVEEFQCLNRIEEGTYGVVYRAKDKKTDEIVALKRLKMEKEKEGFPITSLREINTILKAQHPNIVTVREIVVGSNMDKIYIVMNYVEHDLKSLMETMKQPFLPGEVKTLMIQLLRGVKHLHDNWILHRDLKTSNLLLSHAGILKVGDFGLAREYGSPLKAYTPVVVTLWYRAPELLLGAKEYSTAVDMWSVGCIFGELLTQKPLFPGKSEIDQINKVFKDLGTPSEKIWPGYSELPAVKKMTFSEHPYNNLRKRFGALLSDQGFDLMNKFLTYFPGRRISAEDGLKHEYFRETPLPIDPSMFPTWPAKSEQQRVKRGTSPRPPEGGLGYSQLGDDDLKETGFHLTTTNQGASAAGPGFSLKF
T6 sequence (P49840 whole entry): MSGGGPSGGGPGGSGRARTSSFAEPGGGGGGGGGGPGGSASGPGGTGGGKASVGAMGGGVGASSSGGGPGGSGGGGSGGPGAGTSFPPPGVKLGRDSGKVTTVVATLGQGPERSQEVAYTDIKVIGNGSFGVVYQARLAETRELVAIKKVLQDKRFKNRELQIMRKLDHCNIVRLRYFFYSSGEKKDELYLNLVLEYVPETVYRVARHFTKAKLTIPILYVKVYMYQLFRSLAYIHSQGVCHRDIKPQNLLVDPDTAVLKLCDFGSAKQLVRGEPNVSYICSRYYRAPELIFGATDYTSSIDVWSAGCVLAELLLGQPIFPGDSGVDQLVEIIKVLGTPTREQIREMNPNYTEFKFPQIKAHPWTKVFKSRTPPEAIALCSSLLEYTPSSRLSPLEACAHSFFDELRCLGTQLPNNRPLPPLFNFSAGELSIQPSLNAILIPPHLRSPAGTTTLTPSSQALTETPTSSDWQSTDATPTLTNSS
T9 sequence (Q07002 whole entry): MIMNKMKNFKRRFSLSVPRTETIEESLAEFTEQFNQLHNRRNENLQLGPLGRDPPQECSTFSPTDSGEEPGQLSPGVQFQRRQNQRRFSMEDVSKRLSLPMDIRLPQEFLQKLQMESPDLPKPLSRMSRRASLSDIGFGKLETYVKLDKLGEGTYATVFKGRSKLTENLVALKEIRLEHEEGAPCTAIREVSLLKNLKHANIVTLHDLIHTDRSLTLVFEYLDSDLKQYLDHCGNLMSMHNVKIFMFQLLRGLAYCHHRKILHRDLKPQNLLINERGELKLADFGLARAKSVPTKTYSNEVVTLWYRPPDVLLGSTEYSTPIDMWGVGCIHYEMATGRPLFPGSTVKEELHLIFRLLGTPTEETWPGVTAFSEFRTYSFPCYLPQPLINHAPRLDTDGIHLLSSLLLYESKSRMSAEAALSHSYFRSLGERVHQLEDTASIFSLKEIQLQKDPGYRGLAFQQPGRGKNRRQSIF
T1 sequence (P00533 25-1210 L858R): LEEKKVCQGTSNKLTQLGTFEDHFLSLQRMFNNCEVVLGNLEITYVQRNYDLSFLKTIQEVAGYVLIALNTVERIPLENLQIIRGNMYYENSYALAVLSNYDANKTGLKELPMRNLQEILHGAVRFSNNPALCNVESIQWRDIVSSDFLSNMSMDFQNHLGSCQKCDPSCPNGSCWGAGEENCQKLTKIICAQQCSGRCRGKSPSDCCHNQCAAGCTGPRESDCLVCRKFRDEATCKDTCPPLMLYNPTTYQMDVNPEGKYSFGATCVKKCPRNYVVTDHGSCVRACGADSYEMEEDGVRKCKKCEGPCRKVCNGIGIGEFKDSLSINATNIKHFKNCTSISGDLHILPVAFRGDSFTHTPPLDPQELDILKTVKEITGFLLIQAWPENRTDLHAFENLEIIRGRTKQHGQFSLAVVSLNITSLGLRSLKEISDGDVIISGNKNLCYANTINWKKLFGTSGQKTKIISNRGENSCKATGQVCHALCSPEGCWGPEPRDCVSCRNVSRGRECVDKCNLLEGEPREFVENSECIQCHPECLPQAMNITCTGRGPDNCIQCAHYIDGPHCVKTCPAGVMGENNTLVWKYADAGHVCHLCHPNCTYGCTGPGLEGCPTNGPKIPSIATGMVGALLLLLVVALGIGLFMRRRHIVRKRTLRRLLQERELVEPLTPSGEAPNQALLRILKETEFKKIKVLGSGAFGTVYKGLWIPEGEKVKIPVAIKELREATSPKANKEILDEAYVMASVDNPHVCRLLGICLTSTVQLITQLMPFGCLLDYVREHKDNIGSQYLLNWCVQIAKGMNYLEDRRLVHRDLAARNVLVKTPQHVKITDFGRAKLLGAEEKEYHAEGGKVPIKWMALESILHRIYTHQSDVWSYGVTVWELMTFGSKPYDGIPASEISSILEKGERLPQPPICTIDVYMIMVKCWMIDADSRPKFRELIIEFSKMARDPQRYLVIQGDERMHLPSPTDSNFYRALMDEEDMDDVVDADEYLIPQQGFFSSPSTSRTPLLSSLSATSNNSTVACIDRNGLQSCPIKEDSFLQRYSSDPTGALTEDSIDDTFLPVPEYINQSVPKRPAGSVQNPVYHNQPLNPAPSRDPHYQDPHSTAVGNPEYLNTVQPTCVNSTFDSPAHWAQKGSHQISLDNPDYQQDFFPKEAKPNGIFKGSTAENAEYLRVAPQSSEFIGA
T2 sequence (P09769 whole entry): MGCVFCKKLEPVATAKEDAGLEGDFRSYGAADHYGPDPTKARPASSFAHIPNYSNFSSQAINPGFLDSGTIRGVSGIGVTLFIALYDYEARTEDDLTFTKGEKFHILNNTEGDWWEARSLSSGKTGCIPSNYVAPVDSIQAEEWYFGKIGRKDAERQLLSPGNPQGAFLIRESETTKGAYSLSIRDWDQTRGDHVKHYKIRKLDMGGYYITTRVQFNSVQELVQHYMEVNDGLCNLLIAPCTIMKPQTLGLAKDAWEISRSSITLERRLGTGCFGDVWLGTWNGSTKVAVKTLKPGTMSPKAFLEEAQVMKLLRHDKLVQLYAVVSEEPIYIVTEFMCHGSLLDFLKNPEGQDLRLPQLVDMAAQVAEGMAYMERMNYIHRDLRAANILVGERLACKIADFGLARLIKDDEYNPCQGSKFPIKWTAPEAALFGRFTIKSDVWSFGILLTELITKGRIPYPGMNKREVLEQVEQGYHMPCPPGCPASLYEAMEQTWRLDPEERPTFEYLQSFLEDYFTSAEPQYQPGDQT
T5 sequence (P22607 23-806): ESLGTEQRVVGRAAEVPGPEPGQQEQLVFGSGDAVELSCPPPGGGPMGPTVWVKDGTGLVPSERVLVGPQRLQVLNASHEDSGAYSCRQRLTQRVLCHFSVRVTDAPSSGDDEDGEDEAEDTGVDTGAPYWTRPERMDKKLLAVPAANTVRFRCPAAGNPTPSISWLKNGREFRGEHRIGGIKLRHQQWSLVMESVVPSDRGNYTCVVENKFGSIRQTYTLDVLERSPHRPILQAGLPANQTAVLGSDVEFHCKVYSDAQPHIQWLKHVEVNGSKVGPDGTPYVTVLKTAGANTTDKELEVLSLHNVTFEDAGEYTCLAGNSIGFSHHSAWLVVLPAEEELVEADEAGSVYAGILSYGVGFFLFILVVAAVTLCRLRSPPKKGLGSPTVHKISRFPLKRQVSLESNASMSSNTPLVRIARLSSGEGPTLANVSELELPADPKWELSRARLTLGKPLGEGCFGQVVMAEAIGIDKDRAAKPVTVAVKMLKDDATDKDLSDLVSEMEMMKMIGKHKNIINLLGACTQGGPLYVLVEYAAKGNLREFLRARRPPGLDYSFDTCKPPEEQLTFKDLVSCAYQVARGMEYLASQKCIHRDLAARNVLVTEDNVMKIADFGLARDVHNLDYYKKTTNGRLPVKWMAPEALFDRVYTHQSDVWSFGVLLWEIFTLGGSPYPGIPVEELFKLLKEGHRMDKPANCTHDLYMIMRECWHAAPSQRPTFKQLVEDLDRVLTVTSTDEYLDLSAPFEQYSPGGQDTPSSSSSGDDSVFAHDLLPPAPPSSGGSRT

| SMILES | score (%) (KinomeScan kinase panel [1]) | remaining binding at 10 µM (KinomeScan kinase panel [2]) | remaining binding at 10 µM (KinomeScan kinase panel [3]) | remaining binding at 10 µM (KinomeScan kinase panel [4]) | remaining binding at 10 µM (KinomeScan kinase panel [5]) | remaining binding at 10 µM (KinomeScan kinase panel [6]) | remaining binding at 10 µM (KinomeScan kinase panel [7]) | remaining binding at 10 µM (KinomeScan kinase panel [8]) | remaining binding at 10 µM (KinomeScan kinase panel [9]) | remaining binding at 10 µM (KinomeScan kinase panel [10]; RIOK1, 10 µM) | remaining binding at 10 µM (KinomeScan kinase panel [10]; kinase RIOK1, 10 µM) |
| --- | --- | --- | --- | --- | --- | --- | --- | --- | --- | --- | --- |
| CCN1CCN(Cc2ccc(NC(=O)c3ccc(C)c(NC(=O)c4cncc(-c5cccs5)c4)c3)cc2C(F)(F)F)CC1 [ALW-II-41-27] | 0.25% | 0.2% | > 30% | 1.5% | > 30% | > 30% | > 30% | 0.55% | > 30% | > 30% | – |
| CCN1CCN(Cc2ccc(NC(=O)c3ccc(C)c(C#Cc4cccnc4)c3)cc2C(F)(F)F)CC1 [XMD15-44] | 4% | 0% | 92% | 2.5% | 0.3% | > 30% | > 30% | 1.6% | 6.2% | – | 90% |
| CCN1CCN(Cc2ccc(NC(=O)c3ccc(C)c(/C=C/c4cnc5[nH]ccc5c4Cl)c3)cc2C(F)(F)F)CC1 [HG-6-63-01, (E)-3-(2-(4-chloro-1H-pyrrolo[2,3-b]pyridin-5-yl)vinyl)-N-(4-((4-ethylpiperazin-1-yl)methyl)-3-(trifluoromethyl)phenyl)-4-methylbenzamide] | 0.4% | 0.35% | > 30% | 13% | 2.4% | > 30% | > 30% | 5.7% | > 30% | 0.2% | – |

From paper PMC4457528, “Identification of Novel Small Molecule Inhibitors of Oncogenic RET Kinase” (PLoS ONE, 2015)
